Like-named read-outs stand apart in the source and are kept apart here.
How the values were obtained:
Test in all cases: Kinase profile (33P ATP filter binding)
Assay type in all cases: biochemical
[1] = target: CK1γ2 (Homo sapiens, UniProt P78368)
[2] = target: T1, EPH-B1 (Homo sapiens, UniProt P54762); conditions: read-out: Remaining protein kinase activity
T1 sequence (P54762 18-984): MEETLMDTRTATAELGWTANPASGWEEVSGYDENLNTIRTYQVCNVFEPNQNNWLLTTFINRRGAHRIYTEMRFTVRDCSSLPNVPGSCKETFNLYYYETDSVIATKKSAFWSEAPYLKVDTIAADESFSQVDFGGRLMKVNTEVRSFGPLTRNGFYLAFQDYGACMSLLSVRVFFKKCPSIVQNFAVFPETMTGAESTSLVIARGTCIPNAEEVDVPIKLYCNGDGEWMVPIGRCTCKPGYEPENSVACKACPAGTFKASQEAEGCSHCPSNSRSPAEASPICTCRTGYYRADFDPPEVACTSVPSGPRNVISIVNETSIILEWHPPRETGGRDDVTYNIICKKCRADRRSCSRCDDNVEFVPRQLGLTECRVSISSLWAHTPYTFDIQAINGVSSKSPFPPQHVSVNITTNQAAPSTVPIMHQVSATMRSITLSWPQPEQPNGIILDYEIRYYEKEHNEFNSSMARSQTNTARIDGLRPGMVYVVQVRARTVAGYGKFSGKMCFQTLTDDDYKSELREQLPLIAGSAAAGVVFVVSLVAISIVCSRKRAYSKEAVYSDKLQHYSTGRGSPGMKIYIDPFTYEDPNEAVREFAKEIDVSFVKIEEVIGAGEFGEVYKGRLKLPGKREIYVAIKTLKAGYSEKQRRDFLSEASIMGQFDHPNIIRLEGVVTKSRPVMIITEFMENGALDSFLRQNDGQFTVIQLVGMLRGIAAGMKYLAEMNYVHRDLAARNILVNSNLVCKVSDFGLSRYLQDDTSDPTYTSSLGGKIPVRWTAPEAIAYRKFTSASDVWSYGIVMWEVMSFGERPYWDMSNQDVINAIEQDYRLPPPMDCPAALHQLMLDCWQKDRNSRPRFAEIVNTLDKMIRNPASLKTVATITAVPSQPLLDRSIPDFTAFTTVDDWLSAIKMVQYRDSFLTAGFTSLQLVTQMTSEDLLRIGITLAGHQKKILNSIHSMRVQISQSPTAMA

[3] = target: Lck (Homo sapiens, UniProt P06239); conditions: read-out: Remaining protein kinase activity
Sequence of Lck (P06239 whole entry): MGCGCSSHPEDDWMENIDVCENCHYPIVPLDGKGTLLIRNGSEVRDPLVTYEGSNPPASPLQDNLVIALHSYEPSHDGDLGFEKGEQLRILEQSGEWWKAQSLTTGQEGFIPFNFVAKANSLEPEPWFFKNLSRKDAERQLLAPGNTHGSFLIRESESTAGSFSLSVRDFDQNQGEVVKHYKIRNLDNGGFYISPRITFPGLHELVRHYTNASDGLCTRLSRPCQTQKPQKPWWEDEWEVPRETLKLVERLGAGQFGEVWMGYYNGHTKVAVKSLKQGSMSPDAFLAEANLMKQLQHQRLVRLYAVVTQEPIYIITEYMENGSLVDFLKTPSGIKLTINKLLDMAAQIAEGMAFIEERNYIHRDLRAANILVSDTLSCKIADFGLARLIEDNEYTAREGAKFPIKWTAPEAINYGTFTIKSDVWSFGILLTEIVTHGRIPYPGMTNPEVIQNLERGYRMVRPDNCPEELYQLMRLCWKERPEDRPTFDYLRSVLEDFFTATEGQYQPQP

[4] = target: MEKK1 (Homo sapiens, UniProt Q13233); conditions: read-out: Remaining protein kinase activity
Sequence of MEKK1 (Q13233 whole entry): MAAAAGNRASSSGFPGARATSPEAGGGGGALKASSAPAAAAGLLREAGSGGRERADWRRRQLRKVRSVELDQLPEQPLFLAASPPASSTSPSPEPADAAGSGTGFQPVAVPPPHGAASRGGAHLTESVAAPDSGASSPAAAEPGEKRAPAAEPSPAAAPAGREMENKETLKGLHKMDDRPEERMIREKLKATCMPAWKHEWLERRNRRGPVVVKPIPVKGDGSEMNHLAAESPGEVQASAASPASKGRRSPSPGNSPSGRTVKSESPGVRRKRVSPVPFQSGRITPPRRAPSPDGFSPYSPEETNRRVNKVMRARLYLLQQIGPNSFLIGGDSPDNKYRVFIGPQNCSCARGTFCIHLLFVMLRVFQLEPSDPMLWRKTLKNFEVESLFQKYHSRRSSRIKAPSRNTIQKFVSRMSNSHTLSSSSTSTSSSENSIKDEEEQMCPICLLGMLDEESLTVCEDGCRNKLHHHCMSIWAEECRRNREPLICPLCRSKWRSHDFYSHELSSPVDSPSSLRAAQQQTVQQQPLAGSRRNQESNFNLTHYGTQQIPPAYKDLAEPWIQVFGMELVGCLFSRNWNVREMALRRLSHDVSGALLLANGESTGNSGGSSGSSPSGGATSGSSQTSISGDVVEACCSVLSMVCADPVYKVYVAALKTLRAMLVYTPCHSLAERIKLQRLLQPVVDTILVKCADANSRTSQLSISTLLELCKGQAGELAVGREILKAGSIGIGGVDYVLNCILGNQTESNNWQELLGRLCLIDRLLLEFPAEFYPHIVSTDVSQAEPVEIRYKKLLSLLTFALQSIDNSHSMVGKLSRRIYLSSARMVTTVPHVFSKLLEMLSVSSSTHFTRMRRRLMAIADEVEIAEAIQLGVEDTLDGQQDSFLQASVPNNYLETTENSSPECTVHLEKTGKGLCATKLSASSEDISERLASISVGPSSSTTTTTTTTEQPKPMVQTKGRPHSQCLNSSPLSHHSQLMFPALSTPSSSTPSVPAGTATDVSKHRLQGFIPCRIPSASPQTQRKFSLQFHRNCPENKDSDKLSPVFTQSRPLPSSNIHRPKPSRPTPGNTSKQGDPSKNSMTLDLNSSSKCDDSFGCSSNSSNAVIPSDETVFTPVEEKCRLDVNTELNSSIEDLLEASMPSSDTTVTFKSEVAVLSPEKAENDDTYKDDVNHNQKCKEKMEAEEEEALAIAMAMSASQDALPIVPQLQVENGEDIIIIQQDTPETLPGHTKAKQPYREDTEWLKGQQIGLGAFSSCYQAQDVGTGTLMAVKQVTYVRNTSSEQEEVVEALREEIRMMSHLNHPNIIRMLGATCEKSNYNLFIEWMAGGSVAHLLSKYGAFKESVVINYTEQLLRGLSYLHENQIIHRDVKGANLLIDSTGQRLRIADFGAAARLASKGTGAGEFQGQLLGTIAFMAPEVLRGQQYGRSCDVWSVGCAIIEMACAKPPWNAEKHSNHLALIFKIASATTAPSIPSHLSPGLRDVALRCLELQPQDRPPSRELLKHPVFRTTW

[5] = target: SIK2 (Homo sapiens, UniProt Q9H0K1); conditions: read-out: Remaining protein kinase activity
Sequence of SIK2 (Q9H0K1 whole entry): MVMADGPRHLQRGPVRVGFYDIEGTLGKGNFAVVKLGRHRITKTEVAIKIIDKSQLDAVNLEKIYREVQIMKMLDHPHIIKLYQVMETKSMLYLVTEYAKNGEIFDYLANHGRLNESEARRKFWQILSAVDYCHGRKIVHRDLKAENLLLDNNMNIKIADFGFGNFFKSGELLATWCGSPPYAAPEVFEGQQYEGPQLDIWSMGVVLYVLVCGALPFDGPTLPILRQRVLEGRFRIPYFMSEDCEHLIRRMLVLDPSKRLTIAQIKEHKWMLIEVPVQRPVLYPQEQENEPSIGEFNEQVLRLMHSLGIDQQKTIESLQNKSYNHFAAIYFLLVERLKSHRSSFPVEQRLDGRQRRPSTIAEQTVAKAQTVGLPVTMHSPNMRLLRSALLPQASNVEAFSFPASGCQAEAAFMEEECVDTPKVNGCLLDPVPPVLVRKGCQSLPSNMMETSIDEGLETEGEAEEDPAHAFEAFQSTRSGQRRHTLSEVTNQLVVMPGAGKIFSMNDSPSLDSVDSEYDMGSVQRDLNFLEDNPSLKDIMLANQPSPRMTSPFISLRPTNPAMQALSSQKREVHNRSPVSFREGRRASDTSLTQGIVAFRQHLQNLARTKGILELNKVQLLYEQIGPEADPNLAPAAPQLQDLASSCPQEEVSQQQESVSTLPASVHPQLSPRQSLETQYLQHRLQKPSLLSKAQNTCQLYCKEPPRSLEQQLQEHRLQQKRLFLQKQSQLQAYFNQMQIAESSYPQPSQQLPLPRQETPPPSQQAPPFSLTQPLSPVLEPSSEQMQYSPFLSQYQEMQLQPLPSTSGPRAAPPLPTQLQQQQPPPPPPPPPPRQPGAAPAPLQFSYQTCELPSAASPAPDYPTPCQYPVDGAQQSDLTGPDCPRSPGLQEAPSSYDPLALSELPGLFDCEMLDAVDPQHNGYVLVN

[6] = target: T2, TAO1 (Homo sapiens, UniProt Q7L7X3); conditions: read-out: Remaining protein kinase activity
T2 sequence (Q7L7X3 1-1001): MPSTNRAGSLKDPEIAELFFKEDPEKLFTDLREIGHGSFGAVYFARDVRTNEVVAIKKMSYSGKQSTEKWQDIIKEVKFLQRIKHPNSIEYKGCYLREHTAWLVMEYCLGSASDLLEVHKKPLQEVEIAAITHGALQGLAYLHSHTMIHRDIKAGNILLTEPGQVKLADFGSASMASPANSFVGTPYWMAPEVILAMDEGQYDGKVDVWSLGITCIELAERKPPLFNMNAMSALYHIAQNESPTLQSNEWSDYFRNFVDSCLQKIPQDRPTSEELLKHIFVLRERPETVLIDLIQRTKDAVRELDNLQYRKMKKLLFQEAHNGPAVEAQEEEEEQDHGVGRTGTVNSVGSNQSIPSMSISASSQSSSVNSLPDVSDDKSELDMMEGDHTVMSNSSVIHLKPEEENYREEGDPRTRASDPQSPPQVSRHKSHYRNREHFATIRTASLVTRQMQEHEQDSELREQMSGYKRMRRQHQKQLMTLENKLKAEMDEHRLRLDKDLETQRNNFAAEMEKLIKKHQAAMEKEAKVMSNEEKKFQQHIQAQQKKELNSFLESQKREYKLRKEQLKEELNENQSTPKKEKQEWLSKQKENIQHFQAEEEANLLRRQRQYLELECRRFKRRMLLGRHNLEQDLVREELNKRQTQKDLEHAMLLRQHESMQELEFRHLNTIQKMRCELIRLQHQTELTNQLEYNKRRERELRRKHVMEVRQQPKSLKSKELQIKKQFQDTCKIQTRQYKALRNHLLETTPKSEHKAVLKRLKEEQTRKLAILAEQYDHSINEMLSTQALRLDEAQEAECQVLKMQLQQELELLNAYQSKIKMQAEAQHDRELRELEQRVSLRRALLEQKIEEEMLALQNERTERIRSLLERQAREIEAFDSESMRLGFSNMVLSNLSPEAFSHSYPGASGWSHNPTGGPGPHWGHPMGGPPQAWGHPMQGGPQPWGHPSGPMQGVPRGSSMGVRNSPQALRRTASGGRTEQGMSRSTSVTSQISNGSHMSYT

Sequence of CK1γ2 (P78368 whole entry): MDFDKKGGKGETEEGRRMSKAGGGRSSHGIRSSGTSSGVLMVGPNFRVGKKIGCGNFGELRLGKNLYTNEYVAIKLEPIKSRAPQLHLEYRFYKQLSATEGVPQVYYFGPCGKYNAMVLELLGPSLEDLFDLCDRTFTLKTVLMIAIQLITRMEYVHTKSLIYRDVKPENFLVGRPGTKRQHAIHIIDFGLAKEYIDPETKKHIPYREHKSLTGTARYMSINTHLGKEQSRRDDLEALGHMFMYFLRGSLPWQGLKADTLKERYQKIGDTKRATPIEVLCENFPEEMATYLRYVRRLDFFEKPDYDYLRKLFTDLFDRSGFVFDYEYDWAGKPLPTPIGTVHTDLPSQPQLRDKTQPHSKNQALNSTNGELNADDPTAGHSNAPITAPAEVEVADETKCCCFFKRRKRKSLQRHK

COc1ccc2sc(-c3cncc(NC(C)=O)c3)nc2c1 [PST-001, N-(5-(5-Methoxybenzo[d]thiazol-2-yl)pyridin-3-yl)acetamide] was tested, and the “Remaining protein kinase activity” value ([1]; 1 μM) was 114%, the “Remaining protein kinase activity” value ([1]; 100 μM) was 101% and the remaining activity at 1 µM [2] was 117%. It also gave a remaining activity at 100 µM [2] of 108%, a remaining activity at 1 µM [3] of 93% and a remaining activity at 100 µM [3] of 100%. It also gave a remaining activity at 1 µM [4] of 126%, a remaining activity at 100 µM [4] of 109% and a remaining activity at 1 µM [5] of 112%. The remaining activity at 100 µM [5] was 65%, the remaining activity at 1 µM [6] was 102% and the remaining activity at 100 µM [6] was 111%.

With COc1ccc2sc(-c3cncc(N)c3)nc2c1 [compound 1, 5-(5-Methoxybenzo[d]thiazol-2-yl)pyridin-3-amine] the “Remaining protein kinase activity” value ([1]; 1 μM) was 108%, the “Remaining protein kinase activity” value ([1]; 100 μM) was 24% and the remaining activity at 1 µM ([2]; EPH-B1, 1 μM) was 122%. The remaining activity at 100 µM ([2]; EPH-B1, 100 μM) was 91%, the remaining activity at 1 µM ([3]; Lck, 1 μM) was 106% and the remaining activity at 100 µM ([3]; Lck, 100 μM) was 52%. It also gave a remaining activity at 1 µM ([4]; MEKK1, 1 μM) of 132%, a remaining activity at 100 µM ([4]; MEKK1, 100 μM) of 107% and a remaining activity at 1 µM ([5]; SIK2, 1 μM) of 102%. For the same compound, the remaining activity at 100 µM ([5]; SIK2, 100 μM) was 10%, the remaining activity at 1 µM ([6]; TAO1, 1 μM) was 97% and the remaining activity at 100 µM ([6]; TAO1, 100 μM) was 57%.
